Source: patent US20110207751A1, “HETEROCYCLIC COMPOUNDS AND USES AS ANTICANCER AGENTS” (priority 2010, published 2011)
Structures can show the parent of a compound that is named as a salt.

Assays:
[1] = system: A549 human lung cancer cells; experiment: Mitotic arrest, phosphohistone H3 staining (mitotic index); format: cell-based; conditions: 33 nM
Excerpt: Microtubules are extremely important in the process of mitosis, during which the duplicated chromosomes of a cell are separated into two identical sets before cleavage of the cell into two daughter cells. Compounds which target microtubules such as paclitaxel and vinblastine suppress the microtubule dynamics and block the process of mitosis. As consequence, cells will be arrested at G2/M phase. To test if COMPOUND O influences the process of mitosis in cancer cell dividing, A549 human lung cancer cells were treated with 33 nM of COMPOUND O and paclitaxel, or 0.2% DMSO that served as negative control. The treated cells were stained with an antibody against phosphohistone H3, a marker for cells undergoing mitosis and mitotic arrest. […] It was 44±8%, 45±3% and 3±1% for paclitaxel, COMPOUND O and DMSO treated A549, respectively.

[2] = system: KB cells (parental cervical cancer cell line); experiment: Inhibition of cell proliferation, xCelligence cell index; format: cell-based; conditions: Homo sapiens, 72 hr post compound treatment, read-out: calculated IC50
Excerpt: For measurement of cell-substrate or cell-electrode impedance using RT-CES technology, microelectrodes having appropriate geometries are fabricated onto the bottom surfaces of microtiter plate or similar device, facing into the wells. Cells are introduced into the wells of the devices, and make contact to and attach to the electrode surfaces. The presence, absence or change of properties of cells affects the electronic and ionic passage on the electrode sensor surfaces. Measuring the impedance between or among electrodes provides important information about biological status of cells present on the sensors. When there are changes to the biological status of the cells analogue electronic readout signals are measured automatically and in real time, and are converted to digital signals for processing and for analysis. In a RT-CES system, a cell index (arbitrary representation of change in impedance) is automatically derived and provided based on measured electrode impedance values. The cell index obtained for a given well reflects: 1) how many cells are attached to the electrode surfaces in this well; 2) how well cells are attached to the electrode surfaces in this well. […]
The parental cervical cancer cell line, KB cells were first tested. […] The cell status was monitored prior to and after the compound addition using xCelligence system (Roche). […]

[3] = system: H460 human non-small cell lung cancer xenograft; experiment: In vivo antitumor efficacy, H460 xenograft; set-up: species or system BALB/c immunodeficient nude mice; conditions: for Tumor inhibition rate %: by tumor weight
Excerpt: To evaluate the in vivo anticancer efficacy of COMPOUND O, H460 human non-small cell lung Cancer xenograft models in immunodeficient nude mice was used. The cell line and mice were maintained in the Pharmacology Lab of ACEA Bio (Hangzhou) CO., Ltd. The BALB/c immunodeficient nude mice were purchased from Shanghai SLAC Laboratory Animal, certification number: SCXKA (Shanghai) 2007-0005. The mouse weight was between 19±2 g. Only female mice were used in this study. The numbers of animals tested were as follows: 7 for each dose group, 7 for positive control group and 7 for negative control group.
Test Control. For negative control, each mouse was administered orally with the solvent only having the same volume and same concentration as those used in COMPOUND O test, 120 mg/kg once every other day (qod) for 25 days. For positive control, an oral anticancer compound, Etoposide was administered orally at 30 mg/kg qod for 25 days.
Preparation an Administration of Test Compounds. COMPOUND O was dissolved in 25% phospholipid (S75) and 75% polyvinylpyrrolidone (PL-PVP) then further diluted to 8 mg/ml in 0.9% NaCl aqueous solution. Each mouse was administered orally with the compound solution. Different dosages of COMPOUND O (120 mg/kg qod and 160 mg/kg q3d) were used in the study.
Preparation of tumor cells for transplantation and determination of compound efficacy. To prepare the cancer cells for H460 human non-small cell lung cancer xenograft model, the log phase growing cell in the flask were trypsinized and cells were re-suspended in PBS (pH 7.2) at 1.5×10^7 cells/ml. The cell suspension (3×10^6 cells) was subcutaneously injected into the auxiliary region (right-side) of each mouse. After the inoculated cancer cells grew to a tumor of certain size (150 mm^3) in the nude mice, the mice were randomized into different dosing groups and subjected to compound treatment. Between 3-4 weeks after the first dosing, mice were sacrificed and the transplanted tumors were removed from experimental mice. Each removed solid tumor was weighed; the tumor inhibition rate in each dosage group was calculated according to equation (1) in Example 1.
All used materials including animal food, animal cage, supporting materials and apparatus contacted by animals, were high-pressure sterilized. Nude mice were maintained in laminar flow shelves under SPF condition. After tumor transplantation, mouse weight and tumor size in each compound dosage group were dynamically monitored and plotted. The tumor size was determined by measuring the major axis (a) and minor axis (b) of the tumor, and tumor volume was calculated according to the formula (2) in Example 1.

[4] = system: SW620 cells (human colon cancer cell line); experiment: Inhibition of cell proliferation, xCelligence cell index; format: cell-based; conditions: SW-620, 72 hr post compound treatment, read-out: calculated IC50
Excerpt: The biological activity of compounds disclosed herein was monitored and profiled using the Real-Time Cell Electronic Sensing (RT-CES®) system from ACEA Biosciences, Inc. The RT-CES system utilizes cell-substrate impedance technology to monitor cellular behavior inside tissue culture wells in a microtiter plate format. The technology features in the integration of molecular and cell biology with microelectronics and is based on the electronic detection of biological assay process. […]
For measurement of cell-substrate or cell-electrode impedance using RT-CES technology, microelectrodes having appropriate geometries are fabricated onto the bottom surfaces of microtiter plate or similar device, facing into the wells. […] When there are changes to the biological status of the cells analogue electronic readout signals are measured automatically and in real time, and are converted to digital signals for processing and for analysis. In a RT-CES system, a cell index (arbitrary representation of change in impedance) is automatically derived and provided based on measured electrode impedance values. […]
To quantify cell status based on the measured cell-electrode impedance, a parameter termed Cell Index is derived. Cell Index is a quantitative measure of the status of the cells in an electrode-containing well. […]

| SMILES | mitotic index [1] [%] | IC50 [2] [nM] | TV inhibition rate % T/C ([3]; 120 mg/kg ig × 11 qod) [%] | Tumor volume (mm^3) End ([3]; 120 mg/kg ig × 11 qod) [mm^3] | Tumor volume (mm^3) Start ([3]; 120 mg/kg ig × 11 qod) [mm^3] | Tumor weight (g) x ± SD ([3]; 120 mg/kg ig × 11 qod) [g] | Tumor inhibition rate % ([3]; 120 mg/kg ig × 11 qod) [%] | TV inhibition rate % T/C ([3]; 160 mg/kg ig × 9 q3d) [%] | Tumor volume (mm^3) End ([3]; 160 mg/kg ig × 9 q3d) [mm^3] | Tumor volume (mm^3) Start ([3]; 160 mg/kg ig × 9 q3d) [mm^3] | Tumor weight (g) x ± SD ([3]; 160 mg/kg ig × 9 q3d) [g] | Tumor inhibition rate % ([3]; 160 mg/kg ig × 9 q3d) [%] | IC50 [4] [nM] | TV inhibition rate % T/C ([3]; 30 mg/kg ig × 13 qod) [%] | Tumor volume (mm^3) End ([3]; 30 mg/kg ig × 13 qod) [mm^3] | Tumor volume (mm^3) Start ([3]; 30 mg/kg ig × 13 qod) [mm^3] | Tumor weight (g) x ± SD ([3]; 30 mg/kg ig × 13 qod) [g] | Tumor inhibition rate % ([3]; 30 mg/kg ig × 13 qod) [%] |
| --- | --- | --- | --- | --- | --- | --- | --- | --- | --- | --- | --- | --- | --- | --- | --- | --- | --- | --- |
| CCc1ccc(Nc2nc(-c3c(C)nc4sccn34)cs2)cc1 [COMPOUND O, 2-(4-ethylphenyl)amino-4-(6-methylimidazo[2,1-b]thiazol-5-yl)-thiazole monohydrobromide] | 45±3 | 33.1 | 47.0 | 745.28 ± 245.55 | 162.09 ± 53.94 | 0.81 ± 0.29 | 47.1 | 69.9 | 524.67 ± 141.77 | 171.44 ± 53.63 | 0.46 ± 0.13 | 31.3 | 2.65 | – | – | – | – | – |
| COc1cc([C@@H]2c3cc4c(cc3[C@@H](O[C@@H]3O[C@@H]5CO[C@@H](C)O[C@H]5[C@H](O)[C@H]3O)[C@H]3COC(=O)[C@H]23)OCO4)cc(OC)c1O [Etoposide, reference compound] | – | – | – | – | – | – | – | – | – | – | – | – | – | 50.4 | 775.43 ± 302.62 | 163.79 ± 57.22 | 0.76 ± 0.29 | 48.4 |
| CC(=O)O[C@H]1C(=O)[C@@]2(C)[C@H]([C@H](OC(=O)c3ccccc3)[C@]3(O)C[C@H](OC(=O)[C@H](O)[C@@H](NC(=O)c4ccccc4)c4ccccc4)C(C)=C1C3(C)C)[C@]1(OC(C)=O)CO[C@@H]1C[C@@H]2O [paclitaxel] | 44±8 | 7.19 | – | – | – | – | – | – | – | – | – | – | 0.998 | – | – | – | – | – |
